Patent publication US11739132B2, “Separation moieties and methods of use thereof” (Werewolf Therapeutics, Inc., priority 2019, dated 2023)
No end group written: not given here.

How the values were obtained:
[1] = system: cell lysates of MC38, CT26, CT26-MMP9+ and myofibroblast cell lines; experiment: FRET assay of cell lysates (cell-associated activity); assay type: biochemical, mouse; conditions: for Cleavage activity detected in cell lysates: four cell lines
Excerpt: (§1) Conditioned media and cell lysate samples were received from Charles River Laboratories for the murine colon cancer cell lines: MC38 (epithelial), CT26 (fibroblast), and CT26 transduced with a lentivirus for doxycyclin-inducible expression of MMP9 (CT26 pLVX MMP9-5T4+dox). An immortalized mouse intestinal myofibroblast cell line (ABM Good #T0565) was used as a control stromal cell line, grown under manufacturer recommended conditions. Conditioned media and cell lysate samples were also received for screening purposes from ABM Good for the immortalized mouse colonic epithelial cell line YAMC (ABM Good #T0567).
(§2) Conditioned media samples were prepared according to the standard protocol using logarithmic phase cells. Briefly, cells were grown for 16h in either serum-free media or in complete media containing 10% fetal bovine serum (FBS). After conditioned media collection, the adherent cells were washed then lysed on plate with non-denaturing lysis buffer to produce a lysed “cell pellet” to capture any activity that remained associated with the cells. All cell culture-derived conditioned media samples, cell lysates from Charles River Laboratories, and cell lysates derived internally were processed with identical methods, to allow comparison between samples.
To test for cell pellet-associated FAPa activity, the cell lysates were clarified by ultracentrifugation and then assayed neat in the FRET assay. […] A modest 2-fold greater activity was detected in the three tumor cell lines over the myofibroblast cell line. For comparison, CTSL1 activity was also tested in the cell lysates. CTSL1 is a lysosomal enzyme; therefore, activity toward CTSL1_1 was expected to be similarly abundant in all four cell lines. The ratio of CTSL1_1 cleavage in tumor vs control cell lines in this screening format was ˜1× (grey bars, left-hand bar of each pair, FIG. 41). FAPα (fibroblast activating protein-alpha) is a marker for fibroblast (CT26) and myofibroblast cell lines.

[2] = system: conditioned media from tumor, myofibroblast and YAMC cell lines; experiment: FRET steady-state kinetics of conditioned media (enzyme equivalents); assay type: biochemical, mouse; conditions: for Secreted activity in conditioned media, steady-state kinetics: tumor cell lines
Excerpt: as §1
(§3) In the end-point screening assays, a fixed titer of 10× concentrated sample and a substrate concentration of 10 μM was used. Values reported in the end-point experiments are initial velocity measurements, in relative fluorescence units (RFU) per second. End-point measurements are a starting point for a screen, but the rate of the reaction is non-linearly related to substrate concentration. Therefore, a more accurate representation of activity would be given by steady-state kinetic measurements covering a range of substrate concentrations. To compare activity across cell lines, the data were treated with a Michaelis-Menten model, and the concentration of equivalent enzyme units [E0] was solved.
Accordingly, initial velocity was measured as a function of substrate concentration, using a 2-fold dilution series from 250 to 1 μM. Data were fitted using non-linear least squares fitting with GraphPad Prism software v 8.0 to the Michaelis-Menten equation:
[formula] where kcat is the rate of product formation under steady-state conditions in units (s^−1), and KM is the Michaelis constant that gives the substrate concentration in molar units (M) at which half maximum velocity of the reaction is produced for a given enzyme, [E0] is the enzyme concentration, and [S] the substrate concentration in (M).
In the assays where purified recombinant enzyme is used, the Michaelis-Menten parameters are as classically defined above. For conditioned media samples, the effective titer of conditioned media per assay was adjusted to approximately a 2× concentrate of the original unprocessed media samples to assure that the detection range matched the signal produced. The enzyme component in the calculation is redefined as a mixture of possible proteases that contribute to the cumulative observed activity, each with intrinsic reactivity toward a substrate. In this case, it is more appropriate to consider kcat and KM as macroscopic constants that represent the overall efficiency of catalysis, and E0 is an enzyme equivalent, expressed in units of concentration. To solve the data fit, kcat/KM can be fixed at that of the recombinant enzyme and enzyme equivalents per cell culture volume can be output. The effective titer of enzyme equivalents in this case can be used to compare the activity produced by the different cell lines.
An immortalized mouse colonic epithelial cell line (YAMC) was used to test activity in the presence of additional control “normal” epithelial cells. YAMC's are given the calculated enzyme equivalents (nM) resulting from all of these steady state experiments, to allow for comparison of the amount of equivalent activity per sample. For example, the YAMC control epithelial cell line produced activity with the ADAM17_2 substrate equivalent to that of 0.52±0.03 nM of ADAM17 recombinant enzyme. This cell line compares directly to MC38, also of epithelial origin, which had activity equivalent to that of 0.32±0.03 nM of ADAM17 recombinant enzyme. […] This cell line required non-standard cell culture conditions, including growth with murine IFNγ, and at low temperature to maintain, and may not be fully representative of epithelial cell lines.

[3] = target: T1, CTSL1 (Homo sapiens, UniProt P07711); experiment: 30-mer tandem linker library MSP-MS, CTSL1; assay type: biochemical
T1 sequence (P07711 114-333): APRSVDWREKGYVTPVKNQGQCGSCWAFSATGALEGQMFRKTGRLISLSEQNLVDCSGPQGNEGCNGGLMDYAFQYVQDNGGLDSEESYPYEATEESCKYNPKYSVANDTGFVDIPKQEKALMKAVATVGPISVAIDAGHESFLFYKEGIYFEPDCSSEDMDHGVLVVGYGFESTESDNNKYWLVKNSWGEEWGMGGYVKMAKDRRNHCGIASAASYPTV
Method: (§4) Protease specificity screening was performed using Multiplexed Substrate Profiling by Mass Spectrometry (MSP-MS), the method described in, e.g. O'Donoghue A. J. et al., Nat Methods., 2012; 9(11): 1095-1100. This method employs a physico-chemically diverse peptide library as substrates for proteases, and reactions are monitored over time with mass spectrometric detection of cleaved products. The resulting cleavages are assessed for specific cleavage in the enzyme-treated sample by comparison with results from a no-enzyme control incubation.
(§5) Enzymes were activated and assayed following the manufacturer's recommendations.
(§6) For CTSL1, enzyme was activated by pre-incubation in assay buffer (50 mM MES, 5 mM DTT, 1 mM EDTA, pH=6) for 15 min. MSP-MS reactions were then started with the mixing of enzyme and substrate, at final CTSL1 concentration of 0.04 ng/μl (0.77 nM), and peptide substrate concentration at 500 nM.
This hypothesis was tested in the context of the hybrid linker design experiment. Shown in FIG. 46 are the results of cleavage of two matched 30-mer peptides with the following sequences:
(§7) To analyze the catalytic efficiency of candidate tandem linker designs, a tailored library approach using MSP-MS was applied. For the tailored library, a set of nineteen synthetic peptides, 30 amino acids in length (30-mers), were designed to test whether sequence context affects the efficiency of cleavage. Peptides were assayed in a multiplex format together as a substrate library with individual recombinant enzymes, using MSP-MS. For quantitative comparisons, kinetic analysis was performed over a time course, and results are reported either as a catalytic efficiency kcat/KM for well-behaved first-order kinetics, or as observed rates as kobs for more complex kinetic behavior.
(§8) Catalytic efficiency (kcat/KM) estimations were used to rank the top cleaved substrates in the MSP-MS reaction. Peptides were quantified by mass spectrometric label-free quantitation from the MS1 precursor ion peak areas for each peptide. Enzyme progress curves were modeled from six-time point measurements in GraphPad Prism. Data were fitted using non-linear least squares fitting to the first order kinetics equation:
(§9) [formula] where Y=percent product formation or substrate consumption, and t=time. The observed rate is a function of the enzyme concentration [E0], and an observed catalytic efficiency (kcat/KM) in units M^−1s^−1

[4] = system: conditioned media from MC38, CT26, CT26 pLVX MMP9-5T4+dox and myofibroblast cell lines; experiment: FRET end-point screen of conditioned media; assay type: biochemical, mouse; conditions: conditioned media
Excerpt: Proteolytic activity was screened in the conditioned media samples by fluorescent resonance energy transfer (FRET) assays with the substrates listed in Table 10.
as §1, §2
The resulting conditioned media was buffer exchanged with PBS and concentrated to 10× the original titer as a stock solution.
FBS background controls were therefore used for baseline subtraction at each concentration of substrate throughout the FRET experiments.
as §3

[5] = target: T1, CTSL1; experiment: In vitro FRET kinetics with CTSL1; assay type: biochemical; conditions: 8-mer FRET peptide, Mca/Dnp pair
Method: as §5, §6
Additional in vitro kinetic experiments were performed to characterize a new candidate motif for CTSL1 enzyme; the CTSL1_2 motif has the sequence […] (SEQ ID NO: 199). […] Yet, initial experiments with the CTSL1_2 FRET substrate were inconclusive, possibly due to artifacts in the FRET assay; therefore, a new FRET peptide construct was designed with the 9-mer sequence […] (SEQ ID NO: 236).
All of the FRET substrates used in these studies have a methoxycoumarin (Mca) fluorophore and dinitrophenyl-lysyl (Dnp) quencher pair at the N- and C-termini of the sequences, respectively.

[6] = target: T2, FAPα (Homo sapiens, UniProt Q12884); experiment: 30-mer tandem linker library MSP-MS, FAPα; assay type: biochemical; conditions: at PGGP|AGIG and GP|AGLYAQ respectively
T2 construct: purchased R&D Systems (Bio-techne) 930-ADB-010
T2 sequence (Q12884 1-760): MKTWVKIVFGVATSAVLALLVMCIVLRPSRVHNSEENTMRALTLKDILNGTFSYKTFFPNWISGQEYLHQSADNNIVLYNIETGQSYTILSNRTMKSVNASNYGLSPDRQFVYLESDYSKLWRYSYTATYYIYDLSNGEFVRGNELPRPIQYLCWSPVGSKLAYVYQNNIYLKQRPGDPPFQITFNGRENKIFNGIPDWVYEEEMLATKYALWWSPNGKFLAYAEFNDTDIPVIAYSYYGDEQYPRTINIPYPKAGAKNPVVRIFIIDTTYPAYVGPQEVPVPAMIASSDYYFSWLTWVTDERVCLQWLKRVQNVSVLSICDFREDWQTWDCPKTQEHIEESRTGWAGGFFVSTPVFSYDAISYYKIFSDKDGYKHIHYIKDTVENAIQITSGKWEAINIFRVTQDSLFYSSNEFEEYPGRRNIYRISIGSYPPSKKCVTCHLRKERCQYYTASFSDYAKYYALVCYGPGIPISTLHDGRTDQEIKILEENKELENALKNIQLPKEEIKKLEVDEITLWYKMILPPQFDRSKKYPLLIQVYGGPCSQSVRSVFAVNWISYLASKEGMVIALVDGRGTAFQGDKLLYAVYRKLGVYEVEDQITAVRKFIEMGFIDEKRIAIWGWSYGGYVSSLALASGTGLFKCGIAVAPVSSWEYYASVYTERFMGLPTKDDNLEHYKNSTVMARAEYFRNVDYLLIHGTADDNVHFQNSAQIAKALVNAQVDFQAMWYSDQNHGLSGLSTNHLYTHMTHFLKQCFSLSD
Method: as §4, §5
FAPα activity was tested with fluorescence detection using a generic Z-GP-AMC substrate. For FRET assays, the final enzyme concentration was 5 nM and the buffer was 50 mM TRIS HCl, 1 M NaCl, 1 mg/mL BSA, pH 7.5.
as §7, §8, §9

[7] = target: T3, Thrombin (Homo sapiens, UniProt P00734); experiment: 30-mer library counter-screening MSP-MS, Thrombin; assay type: biochemical
T3 construct: purchased R&D Systems (Bio-techne) 2196-SE-200
Method: as §4, §5
Thrombin was activated following the manufacturer's recommended conditions by pre-incubation with the enzyme with thermolysin for 15 min, and then the thermolysin was quenched with 1,10 phenanthroline treatment. Activated thrombin was assayed at 1.2 nM in activation buffer: 50 mM TRIS HCl, 10 mM CaCl2, 150 mM NaCl, 0.05% (w/v) Brij-35, pH 7.5.
(§10) Counter-screening was performed against the enzymes Thrombin, Factor Xa and Hepsin using this library as well, and for calibration of activity, a positive-control peptide bearing favorable motifs for these enzymes was also designed (ALU30-19).
as §8, §9
(§11) Counter-screening with Thrombin, Factor Xa and Hepsin was also performed following the same analysis. The library peptide Alu30-19 was designed to include authentic sites for each enzyme, for comparison of overall cleavage efficiency as well as cleavage site specificity within each motif. The substrate designed for Factor Xa has the motif FNPR|TFGS (SEQ ID NO: 248), derived from the Factor Xa cleavage site in Thrombin. The substrate motif for Thrombin was FPR|, a common tool substrate motif. The substrate motif for hepsin was RKRR|GSRG (SEQ ID NO: 249) from filaggrin.

[8] = target: T4, Hepsin (Homo sapiens, UniProt P05981); experiment: 30-mer library counter-screening MSP-MS, Hepsin; assay type: biochemical
T4 construct: purchased R&D Systems (Bio-techne) 4776-SE
T4 sequence (P05981 163-417 limits assumed): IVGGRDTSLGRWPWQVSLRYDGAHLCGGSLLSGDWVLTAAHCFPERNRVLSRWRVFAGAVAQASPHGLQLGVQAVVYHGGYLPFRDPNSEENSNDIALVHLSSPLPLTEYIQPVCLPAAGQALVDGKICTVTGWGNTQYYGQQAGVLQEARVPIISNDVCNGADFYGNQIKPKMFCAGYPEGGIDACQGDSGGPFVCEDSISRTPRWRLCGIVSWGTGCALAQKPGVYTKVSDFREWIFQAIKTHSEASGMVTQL
T4 sequence (P05981 1-162 partner limits assumed): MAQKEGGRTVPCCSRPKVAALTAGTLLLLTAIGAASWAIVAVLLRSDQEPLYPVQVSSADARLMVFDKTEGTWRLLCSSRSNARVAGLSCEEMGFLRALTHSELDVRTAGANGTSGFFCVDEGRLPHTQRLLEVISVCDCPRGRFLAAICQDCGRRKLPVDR
Method: as §4, §5
Hepsin was pre-activated overnight at 37° C. in the manufacturer recommended buffer: 100 mM TRIS, 10 mM CaCl2, 150 mM NaCl, 0.05% Brij-35, pH 8.0. Activity was measured with 2.4 or 24 nM enzyme in the buffer: 50 mM TRIS HCl at pH 7.4.
as §10, §8, §9, §11

| Cleavage of motif by FAPα [6] | Relative efficiency of 30-mer peptide cleavage by thrombin [7] | Relative efficiency of cleavage by hepsin [8] | Relative efficiency of 30-mer peptide cleavage by CTSL1 [3] | Sequence | Cell-associated activity, MC38 vs other cell lines ([1]; cell lysates) | Ratio of cleavage in tumor vs control cell lines, cell lysates ([1]; cell lysates assayed neat) [×] | Cleavage activity detected in cell lysates [1] | Secreted activity in conditioned media, steady-state kinetics [2] | −1 site product formation by CTSL1 ([3]; matched 30-mer peptides SEQ ID NO: 207 (CTSL1_1) and 219 (CTSL1_2)) | Substrate cleavage activity, CT26-MMP9+ cell line ([4]; end-point screen) | Substrate cleavage activity, MC38 and CT26 parental cell lines ([4]; end-point screen) | Substrate cleavage activity, control myofibroblast cell line ([4]; end-point screen) | Cleavage of 8-mer FRET substrate by CTSL1 [5] | Cell-associated activity in myofibroblasts ([1]; cell lysates) | Activity in three tumor cell lines over myofibroblast cell line, cell lysates ([1]; cell lysates assayed neat) [fold] | Secreted activity in myofibroblast conditioned media, steady-state kinetics ([2]; myofibroblast) | Substrate cleavage activity in the end-point screen [4] |
| --- | --- | --- | --- | --- | --- | --- | --- | --- | --- | --- | --- | --- | --- | --- | --- | --- | --- |
|  |  |  |  | ALFKSSFP (also: Mca fluorophore and Dnp quencher, places not given here) [CTSL1_1, FRET substrate with Mca fluorophore and Dnp quencher] | significantly greater in MC38 cells over the myofibroblast, CT26 parental, and CT26-MMP9+ cells | ~1 | detected in all of the cell lysates | no measurable activity above background | had a −1 site product | undetectable activity | low activity | undetectable activity | highly efficiently |  |  |  |  |
| able to cleave |  |  |  | PGGPAGIG (also: Mca fluorophore and Dnp quencher, places not given here) [FAPα_1, FRET substrate with Mca fluorophore and Dnp quencher] |  |  | detected in all four cell lines | lower activity than that associated with the cell pellet |  |  |  |  |  | did have cell-associated activity | 2 | no measurable secreted activity | very low, but was still detected in all three tumor cell lines |
|  | cleaved at lower efficiency | slightly higher hepsin susceptibility | lower CTSL1 activity | RGGGPAGLYAQPLAQKLKSSALFKSSFPGG [Alu30-15] |  |  |  |  |  |  |  |  |  |  |  |  |  |
